Experimental data from the supplement of paper PMC13380429.

Assays:
Settings in all cases: 72 h
Vero E6 [1] = experiment: relative viability EC50 (midpoint between 100% and the lowest measured viability); higher = less toxic
U2OS [2] = experiment: as above
Caco-2 [3] = experiment: as above
Calu-3 [4] = experiment: as above
Vero E6 [5] = experiment: drug sensitivity score (DSS) for viability; higher = more toxic; extreme values may be limits of the assay
U2OS [6] = experiment: as above
HepG2 [7] = experiment: as above
Caco-2 [8] = experiment: as above
Calu-3 [9] = experiment: as above
Vero E6 [10] = experiment: cell viability relative to DMSO; higher = less toxic
U2OS [11] = experiment: as above
HepG2 [12] = experiment: as above
Caco-2 [13] = experiment: as above
Calu-3 [14] = experiment: as above
HepG2 [15] = experiment: relative viability EC50 (midpoint between 100% and the lowest measured viability); higher = less toxic

| SMILES | relative viability EC50 (Vero E6 [1]) | relative viability EC50 (U2OS [2]) | relative viability EC50 (Caco-2 [3]) | relative viability EC50 (Calu-3 [4]) | drug sensitivity score (Vero E6 [5]) | drug sensitivity score (U2OS [6]) | drug sensitivity score (HepG2 [7]) | drug sensitivity score (Caco-2 [8]) | drug sensitivity score (Calu-3 [9]) | cell viability (Vero E6 [10]; 1 nM) | cell viability (Vero E6 [10]; 10 nM) | cell viability (Vero E6 [10]; 100 nM) | cell viability (Vero E6 [10]; 1000 nM) | cell viability (Vero E6 [10]; 10000 nM) | cell viability (U2OS [11]; 1 nM) | cell viability (U2OS [11]; 10 nM) | cell viability (U2OS [11]; 100 nM) | cell viability (U2OS [11]; 1000 nM) | cell viability (U2OS [11]; 10000 nM) | cell viability (HepG2 [12]; 1 nM) | cell viability (HepG2 [12]; 10 nM) | cell viability (HepG2 [12]; 100 nM) | cell viability (HepG2 [12]; 1000 nM) | cell viability (HepG2 [12]; 10000 nM) | cell viability (Caco-2 [13]; 1 nM) | cell viability (Caco-2 [13]; 10 nM) | cell viability (Caco-2 [13]; 100 nM) | cell viability (Caco-2 [13]; 1000 nM) | cell viability (Caco-2 [13]; 10000 nM) | cell viability (Calu-3 [14]; 1 nM) | cell viability (Calu-3 [14]; 10 nM) | cell viability (Calu-3 [14]; 100 nM) | cell viability (Calu-3 [14]; 1000 nM) | cell viability (Calu-3 [14]; 10000 nM) | relative viability EC50 (HepG2 [15]) |
| --- | --- | --- | --- | --- | --- | --- | --- | --- | --- | --- | --- | --- | --- | --- | --- | --- | --- | --- | --- | --- | --- | --- | --- | --- | --- | --- | --- | --- | --- | --- | --- | --- | --- | --- | --- |
| C[C@@]12CCc3occc3[C@H]1CC[C@@]13C[C@@H](CC[C@H]12)[C@@](O)(CO)C3 [cafestol] | > 10 µM | > 10 µM | > 10 µM | > 10 µM | 0 | 0 | 1.1 | 0.5 | 0 | 98.7% | 97.7% | 102% | 98% | 104% | 101% | 103% | 94.2% | 98.2% | 94.4% | 83.8% | 96.4% | 78.4% | 104% | 69.3% | 119% | 100% | 104% | 103% | 79.6% | 104% | 104% | 107% | 112% | 98.2% |  |
| O=C(c1ccc(OCCCc2c[nH]cn2)cc1)C1CC1 [ciproxifan] | > 10 µM | > 10 µM | > 10 µM | > 10 µM | 0 | 0 | 4.1 | 0 | 0.5 | 101% | 102% | 101% | 101% | 94.2% | 96.1% | 105% | 96.8% | 95.8% | 97.5% | 106% | 107% | 99.8% | 74.3% | 88.6% | 101% | 97.1% | 91.8% | 94.2% | 88.4% | 93.4% | 101% | 99.9% | 88.2% | 93.1% |  |
| COc1cc(OC)c2c(=O)[nH]c(-c3cc(C)c(OCCO)c(C)c3)nc2c1 [apabetalone] |  | > 10 µM | > 10 µM | > 10 µM | 2.9 | 0 | 0.9 | 0 | 0 | 99.8% | 98.4% | 105% | 93% | 63.8% | 102% | 102% | 104% | 96.8% | 89.2% | 101% | 99.9% | 91.3% | 93.2% | 79.9% | 109% | 96.9% | 102% | 101% | 87.6% | 98.5% | 90.2% | 90.2% | 99.4% | 102% | > 10 µM |
| Cc1ccccc1C(OCCN(C)C)c1ccccc1 (centres undefined) [orphenadrine] |  | > 10 µM | > 10 µM | > 10 µM |  | 0 | 0 | 0 | 0 |  |  |  |  |  | 106% | 97.7% | 95.5% | 97.5% | 97.8% | 102% | 108% | 90.7% | 105% | 109% | 99.9% | 93.6% | 94.3% | 98.7% | 95.5% | 99.5% | 103% | 106% | 102% | 92.9% | > 10 µM |
| CCCCCCCCCCCCCCCC(=O)OC[C@H](O)[C@H]1OC(=O)C(O)=C1O [L-ascorbyl-6-palmitate] |  | > 10 µM | > 10 µM | > 10 µM |  | 0 | 0 | 0 | 0 |  |  |  |  |  | 100% | 103% | 97.5% | 102% | 97.9% | 101% | 93.2% | 92.6% | 94.4% | 97.7% | 95.2% | 100% | 96.1% | 99.7% | 95% | 98.9% | 104% | 94.5% | 108% | 113% | > 10 µM |
| O=C(NCC1(N2CCN(c3ccccc3)CC2)CCOCC1)c1cccnc1Sc1ccccc1 |  | > 10 µM | > 10 µM | > 10 µM |  | 0 | 0 | 0 | 0 |  |  |  |  |  | 96.1% | 96.5% | 101% | 98.9% | 102% | 107% | 101% | 103% | 97.5% | 91.4% | 99.8% | 97.4% | 103% | 98.1% | 94.1% | 99.4% | 106% | 104% | 99.8% | 95% | > 10 µM |
| CC1(C)S[C@@H]2[C@H](NC(=O)[C@H](C(=O)O)c3ccsc3)C(=O)N2[C@H]1C(=O)O [ticarcillin] |  | > 10 µM | > 10 µM | > 10 µM |  | 0 | 0 | 0 | 0 |  |  |  |  |  | 101% | 100% | 98.6% | 98.1% | 101% | 106% | 97.3% | 87.7% | 102% | 88.8% | 103% | 97.6% | 91.1% | 102% | 93.6% | 91.5% | 106% | 109% | 97.7% | 103% | > 10 µM |
| CS(=O)(=O)CCNCc1ccc(-c2ccc3ncnc(Nc4ccc(OCc5cccc(F)c5)c(Cl)c4)c3c2)o1 [lapatinib] |  |  |  | 0.176 µM | 5.5 | 1.4 | 0 | 4.8 | 15.1 | 96.9% | 100% | 92.4% | 74.6% | 51.5% | 98.4% | 93.6% | 94% | 92.3% | 74.9% | 98% | 107% | 104% | 112% | 89.1% | 100% | 93.7% | 90.1% | 77.3% | 62.8% | 102% | 89.6% | 74.2% | 35.8% | 24.5% | > 10 µM |
| Cc1ccc(C(=O)Nc2ccc(Oc3cc4cnn(C)c4cc3-c3cn[nH]c3)c(F)c2)c(=O)n1-c1ccc(F)cc1 |  |  |  |  | 2.6 | 1.8 | 8.3 | 2.5 | 5.1 | 103% | 99.6% | 96.7% | 92.1% | 68.1% | 101% | 95.5% | 98.8% | 96.9% | 69.9% | 102% | 110% | 97.4% | 75.5% | 15.6% | 98% | 94.9% | 102% | 99.3% | 53.8% | 92% | 91.9% | 101% | 70.7% | 65.3% | 1.43 µM |
| COc1cc2ncnc(Nc3ccc(Oc4ccccc4)cc3)c2cc1OC [SRC-kinase-inhibitor-I] |  | > 10 µM |  | 1.98 µM | 2.6 | 0.4 | 0.1 | 2.1 | 5.4 | 103% | 97.2% | 109% | 93.5% | 66.7% | 99.7% | 105% | 99.6% | 103% | 80.8% | 104% | 112% | 104% | 103% | 86.8% | 96.8% | 106% | 98% | 94.7% | 71.1% | 88.9% | 102% | 94% | 89.9% | 33.4% | > 10 µM |
| CCn1c(=O)n([C@H]2CCCN(c3nccc(-c4cc5ccccc5o4)n3)C2)c2ccccc21 [TC-F-2] | > 10 µM | > 10 µM | > 10 µM | > 10 µM | 0 | 0 | 3.7 | 1.4 | 0 | 103% | 99.5% | 96.1% | 96.6% | 102% | 95.1% | 101% | 96.4% | 98.8% | 96.5% | 96% | 103% | 99.2% | 90.7% | 56.9% | 95.6% | 91.4% | 85.1% | 92% | 84.9% | 98.8% | 99.6% | 114% | 104% | 98.4% |  |
| O=[N+]([O-])c1cc([N+](=O)[O-])c(/C=C/c2ccc(Cl)c(Cl)c2)cc1/C=C/c1ccc(Cl)c(Cl)c1 | > 10 µM | > 10 µM | > 10 µM | > 10 µM | 0 | 0 |  | 0.1 | 0 | 103% | 105% | 101% | 102% | 97.3% | 68.7% | 102% | 94.8% | 110% | 94.1% |  |  |  |  |  | 91.4% | 97.2% | 89% | 102% | 86.3% | 100% | 98.5% | 87.2% | 97.6% | 95.9% |  |
| CC(=O)N1CCN(c2ccc(OC[C@@H]3CO[C@@](Cn4ccnc4)(c4ccc(Cl)cc4Cl)O3)cc2)CC1 (racemic) [ketoconazole] |  | > 10 µM | > 10 µM | > 10 µM |  | 0 | 0.3 | 0.3 | 0 |  |  |  |  |  | 98.3% | 101% | 99.3% | 103% | 95.3% | 112% | 96.1% | 111% | 102% | 83.3% | 91.9% | 110% | 95.1% | 104% | 82.6% | 97.1% | 90.6% | 96.3% | 96.3% | 96.9% | > 10 µM |
| C=Cc1cc(O)cc2nc(-c3ccc(O)c(F)c3)oc12 [prinaberel] | > 10 µM | > 10 µM | > 10 µM | > 10 µM | 0 | 0 | 0.8 | 0.7 | 0 | 103% | 99.9% | 98% | 100% | 95.5% | 100% | 101% | 94.6% | 98.6% | 96.9% | 102% | 104% | 93.4% | 103% | 74.6% | 95.5% | 99.7% | 88.7% | 90% | 91.9% | 96.8% | 104% | 95.3% | 95.9% | 93.4% |  |
